The target of experiment [1] is T1, human enzyme NAMPT (full length) (Homo sapiens, UniProt P43490).
T1 construct: human enzyme NAMPT (full length)
Description: NMN fluorescence biochemical assay (stimulation of NMN synthesis by NAMPT). As to conditions: for EC50: concentration giving half-maximal activation, read-out: Enzymatic EC50; for Enzymatic Emax: fold change of maximal activation compared to DMSO. In short, it runs like this:
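Full-length human NAMPT (100 nM) was preincubated 15 min at 37 °C with compound in 50 mM Tris-HCl pH 7.5, 10 mM MgCl2, 2 mM DTT, then reacted 1 h at 37 °C with 50 μM NAM, 100 μM PRPP, 4 mM ATP (stated solution concentrations). NMN was derivatised with acetophenone/KOH then formic acid and read at Ex/Em 382/445 nm; EC50 and Emax (fold over DMSO) reported.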

In experiment [2] the test system is endogenous NAMPT in U2OS cells. Description: Cellular NAD+ modulation assay (NAD/NADH-Glo, U2OS cells). In kind it is cell-based. To be noted: Homo sapiens; for maximal fold induction: read-out: Cellular Emax. In short, it runs like this: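 Endogenous NAMPT stimulation in U2OS cells treated with compound dilution series for 24 h at 37 °C. Cells lysed with DTAB base, acid-treated 15 min at 60 °C, neutralized, NAD+ read by NAD/NADH-Glo luminescence after 40 min at room temperature. EC50 and Emax (fold over DMSO) derived.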

The mark [3] stands for this setting: NMN synthesis by purified human NAMPT (100 nM).
Setting [4] is: 24 hours incubation with compound.
Setting [5] is: NMN fluorescence assay, purified human NAMPT 100 nM.
The mark [6] stands for this setting: 24 hours incubation, cellular NAD+.

Molecules are shown by their SMILES. Where two headings read alike, the source gives them in different places. A value given as a limit tells only on which side of the number the result lay.

A word on the EC50: it is the concentration giving half of the maximal effect.

T1 sequence (P43490 whole entry): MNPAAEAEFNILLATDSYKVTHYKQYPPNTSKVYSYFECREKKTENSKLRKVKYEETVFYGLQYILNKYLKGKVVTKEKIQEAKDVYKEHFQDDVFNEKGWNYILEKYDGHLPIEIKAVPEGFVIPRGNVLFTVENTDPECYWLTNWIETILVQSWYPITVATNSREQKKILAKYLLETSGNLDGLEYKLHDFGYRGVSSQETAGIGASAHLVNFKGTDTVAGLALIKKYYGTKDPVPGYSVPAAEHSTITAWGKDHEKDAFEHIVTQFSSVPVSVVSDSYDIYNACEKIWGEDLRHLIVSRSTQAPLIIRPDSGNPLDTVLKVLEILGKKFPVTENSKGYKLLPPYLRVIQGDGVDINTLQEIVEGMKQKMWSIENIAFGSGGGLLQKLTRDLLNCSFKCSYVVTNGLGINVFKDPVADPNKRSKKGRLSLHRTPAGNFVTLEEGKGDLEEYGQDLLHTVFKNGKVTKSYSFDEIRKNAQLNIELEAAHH

Turning to `CC1c2cc(F)ccc2C(=O)N1Cc1ccc2[nH]c(=O)oc2c1` (stereo not drawn) [Compound 275, 6-((5-fluoro-3-methyl-1-oxoisoindolin-2-yl)methyl)benzo[d]oxazol-2(3H)-one], the concentration for a half-maximal effect (EC50) in experiment [1] (setting [3]) is not below 5000 nM. Also, in experiment [1], the “Enzymatic Emax” value is “B (3≥B>2)”. Besides, in experiment [2] (setting [4]), the concentration giving a half-maximal response (EC50) fell in the range of 500 to 5000 nM and the maximal fold induction is more than 1.5.
Consider `Cn1ncc(Cl)c1CC1c2cccc(F)c2C(=O)N1CC1CC2(CNC(=O)O2)C1` (stereo not drawn) [Compound 309, 2-((1-((4-chloro-1-methyl-1H-pyrazol-5-yl)methyl)-4-fluoro-3-oxoisoindolin-2-yl)methyl)-5-oxa-7-azaspiro[3.4]octan-6-one], for which the concentration giving a half-maximal response (EC50) in experiment [1] (setting [3]) and in experiment [2] (setting [4]) was less than 500 nM throughout. Further, in experiment [1], the “Enzymatic Emax” value is “B (3≥B>2)”. The maximal fold induction in experiment [2] (setting [4]) is more than 1.5.
As to `Cn1cccc(CC2c3ccccc3C(=O)N2Cc2ccc3[nH]c(=O)oc3c2)c1=O` (stereo not drawn) [Compound 234, 6-((1-((1-methyl-2-oxo-1,2-dihydropyridin-3-yl)methyl)-3-oxoisoindolin-2-yl)methyl) benzo[d]oxazol-2(3H)-one], the values for the EC50 in experiment [1] (setting [3]) and in experiment [2] (setting [4]) were not below 5000 nM and 500 to 5000 nM, respectively. In addition, the “Enzymatic Emax” value in experiment [1] is recorded as “A (A>3)”. Moreover, the maximal fold induction in experiment [2] (setting [4]) is more than 1.5.
As to `Cn1ncc(Cl)c1C[C@H]1c2ccccc2C(=O)N1C[C@H]1C[C@]2(CNC(=O)O2)C1` [Compound 406, (2s,4R)-2-(((S)-1-((4-chloro-1-methyl-1H-pyrazol-5-yl)methyl)-3-oxoisoindolin-2-yl)methyl)-5-oxa-7-azaspiro[3.4]octan-6-one], the EC50 in experiment [1] (setting [5]) and in experiment [2] (setting [6]) was less than 500 nM throughout. The “Enzymatic Emax” value in experiment [1] was “B (3≥B>2)”. For the same compound, the maximal fold induction in experiment [2] (setting [6]) is more than 1.5.
Take `Cc1nc(Cl)c(CC2c3ccccc3C(=O)N2CC2CC3(CNC(=O)O3)C2)n1C` (stereo not drawn) [Compound 526, 2-((1-((4-chloro-1,2-dimethyl-1H-imidazol-5-yl)methyl)-3-oxoisoindolin-2-yl)methyl)-5-oxa-7-azaspiro[3.4]octan-6-one]: in experiment [1] (setting [5]), the EC50 lay in the range of 500 to 5000 nM. Besides, the “Enzymatic Emax” value in experiment [1] is listed as “B (3≥B>2)”. For the same compound, in experiment [2] (setting [6]), the EC50 is 500 to 5000 nM and the maximal fold induction was more than 1.5.
For the compound `COc1ccc(CN2C(=O)c3ccccc3C2Cc2c(Cl)ccc(=O)n2C)cn1` (stereo not drawn) [Compound 609, 3-((3-chloro-1-methyl-6-oxo-1,6-dihydropyridin-2-yl)methyl)-2-((6-methoxypyridin-3-yl)methyl)isoindolin-1-one], the concentration giving a half-maximal response (EC50) in experiment [1] (setting [5]) lay within 500 to 5000 nM. For the same compound, the “Enzymatic Emax” value in experiment [1] is “B (3≥B>2)”. In addition, in experiment [2] (setting [6]), the EC50 lay in the range of 500 to 5000 nM and the maximal fold induction is more than 1.5.
For the compound `Cn1ncc(Cl)c1CC1c2cc(C3CCOCC3)ccc2C(=O)N1Cc1ccc2[nH]nnc2c1` (stereo not drawn) [Compound 398, 2-((1H-benzo[d][1,2,3]triazol-5-yl)methyl)-3-((4-chloro-1-methyl-1H-pyrazol-5-yl)methyl)-5-(tetrahydro-2H-pyran-4-yl)isoindolin-1-one], the EC50 in experiment [1] (setting [5]) was less than 500 nM. For the same compound, the “Enzymatic Emax” value in experiment [1] is reported as “A (A>3)”. Moreover, in experiment [2] (setting [6]), the 50% effective concentration (EC50) lay within 500 to 5000 nM and the maximal fold induction was more than 1.5.
For `O=C1c2ccccc2C(Cc2ncccc2Br)N1C/C=C/c1c[nH]nn1` (stereo not drawn) [Compound 328, (E)-2-(3-(1H-1,2,3-triazol-4-yl)allyl)-3-((3-bromopyridin-2-yl)methyl)isoindolin-1-one], the EC50 in experiment [1] (setting [5]) and in experiment [2] (setting [6]) was less than 500 nM each time. In addition, the “Enzymatic Emax” value in experiment [1] is “B (3≥B>2)”. Besides, in experiment [2] (setting [6]), the maximal fold induction was more than 1.5.
`Cn1ncc(Cl)c1CC1c2cc(CN3CCCC3)ccc2C(=O)N1CC1CC2(CNC(=O)O2)C1` (stereo not drawn) [Compound 462, 2-((3-((4-chloro-1-methyl-1H-pyrazol-5-yl)methyl)-1-oxo-5-(pyrrolidin-1-ylmethyl)isoindolin-2-yl)methyl)-5-oxa-7-azaspiro[3.4]octan-6-one]: in experiment [1] (setting [5]), the EC50 fell in the range of 500 to 5000 nM. In experiment [1], the “Enzymatic Emax” value is given as “C (2≥C)”. In addition, in experiment [2] (setting [6]), the 50% effective concentration (EC50) lay within 5000 to 50000 nM and the maximal fold induction was more than 1.5.
On to `N#Cc1ccncc1CC1c2ccccc2C(=O)N1Cc1ccc2[nH]c(=O)oc2c1` (stereo not drawn) [Compound 203, 3-((3-oxo-2-((2-oxo-2,3-dihydrobenzo[d]oxazol-6-yl)methyl)isoindolin-1-yl)methyl) isonicotinonitrile], for which, in experiment [1] (setting [3]), the EC50 is 500 to 5000 nM. Also, the “Enzymatic Emax” value in experiment [1] was “A (A>3)”. In experiment [2] (setting [4]), the half-maximal effective concentration (EC50) is less than 500 nM and the maximal fold induction is more than 1.5.
Take `Cn1ncc(Cl)c1CC1c2ccccc2C(=O)N1CC1CC1C(N)=O` (stereo not drawn) [Compound 582, 2-((1-((4-chloro-1-methyl-1H-pyrazol-5-yl)methyl)-3-oxoisoindolin-2-yl)methyl)cyclopropane-1-carboxamide]: the half-maximal effective concentration (EC50) in experiment [1] (setting [5]) was not below 5000 nM. Moreover, the “Enzymatic Emax” value in experiment [1] is on record as “C (2≥C)”. Also, in experiment [2] (setting [6]), the EC50 was 5000 to 50000 nM and the maximal fold induction is 1.2 to 1.5.
On to `Cn1ncc(Cl)c1CC1c2ccccc2C(=O)N1C[C@]1(F)C[C@@]2(CNC(=O)O2)C1` (stereo partly drawn) [Compound 487, (2r,4r)-2-((1-((4-chloro-1-methyl-1H-pyrazol-5-yl)methyl)-3-oxoisoindolin-2-yl)methyl)-2-fluoro-5-oxa-7-azaspiro[3.4]octan-6-one], for which the 50% effective concentration (EC50) in experiment [1] (setting [5]) was in the range of 500 to 5000 nM. Moreover, the “Enzymatic Emax” value in experiment [1] is “B (3≥B>2)”. For the same compound, in experiment [2] (setting [6]), the EC50 was less than 500 nM and the maximal fold induction was more than 1.5.
`O=C1c2ncccc2CN1Cc1ccc(O)cc1` [Compound 40, 6-(4-hydroxybenzyl)-5,6-dihydro-7H-pyrrolo[3,4-b]pyridin-7-one]: in experiment [1] (setting [3]), the EC50 is not below 5000 nM. The “Enzymatic Emax” value in experiment [1] is reported as “B (3≥B>2)”. In experiment [2] (setting [4]), the 50% effective concentration (EC50) is 5000 to 50000 nM and the maximal fold induction was 1.2 to 1.5.
As to `Cn1ncc(Cl)c1CC1c2ccccc2C(=O)N1C[C@@H]1C[C@@H]1c1c[nH]nn1` (relative stereo) [Compound 604, cis 2-((2-(1H-1,2,3-triazol-4-yl)cyclopropyl)methyl)-3-((4-chloro-1-methyl-1H-pyrazol-5-yl)methyl)isoindolin-1-one], the concentration for a half-maximal effect (EC50) in experiment [1] (setting [5]) was not below 5000 nM. Besides, the “Enzymatic Emax” value in experiment [1] is on record as “C (2≥C)”. For the same compound, in experiment [2] (setting [6]), the 50% effective concentration (EC50) fell in the range of 5000 to 50000 nM and the maximal fold induction was not above 1.2.
Take `O=C1c2ccccc2C(Cc2cnccc2Cl)N1Cc1ccc2[nH]c(=O)oc2c1` (stereo not drawn) [Compound 175, 6-((1-((4-chloropyridin-3-yl)methyl)-3-oxoisoindolin-2-yl)methyl)benzo[d]oxazol-2(3H)-one]: the EC50 in experiment [1] (setting [3]) is less than 500 nM. The “Enzymatic Emax” value in experiment [1] was “B (3≥B>2)”. For the same compound, in experiment [2] (setting [4]), the EC50 is less than 500 nM and the maximal fold induction is more than 1.5.
Turning to `O=C1c2ccc(N3CCCC3)cc2C(=O)N1Cc1ccc(O)cc1` [Compound 36, 2-(4-hydroxybenzyl)-5-(pyrrolidin-1-yl)isoindoline-1,3-dione], the EC50 in experiment [1] (setting [3]) and in experiment [2] (setting [4]) was 500 to 5000 nM each time. Moreover, the “Enzymatic Emax” value in experiment [1] is listed as “A (A>3)”. Also, the maximal fold induction in experiment [2] (setting [4]) was 1.2 to 1.5.
Regarding `Cc1ccnc(C#N)c1CC1c2ccccc2C(=O)N1Cc1ccc2[nH]nnc2c1` (stereo not drawn) [Compound 284, 3-((2-((1H-benzo[d][1,2,3]triazol-5-yl)methyl)-3-oxoisoindolin-1-yl)methyl)-4-methylpicolinonitrile], the half-maximal effective concentration (EC50) in experiment [1] (setting [3]) and in experiment [2] (setting [4]) was less than 500 nM throughout. Moreover, the “Enzymatic Emax” value in experiment [1] is “A (A>3)”. Further, the maximal fold induction in experiment [2] (setting [4]) is 1.2 to 1.5.
As for `Cc1c(C#N)cccc1CC1c2ccccc2C(=O)N1Cc1ccc2[nH]c(=O)oc2c1` (stereo not drawn) [Compound 174, 2-methyl-3-((3-oxo-2-((2-oxo-2,3-dihydrobenzo[d]oxazol-6-yl)methyl)isoindolin-1-yl)methyl)benzonitrile], the EC50 in experiment [1] (setting [3]) was less than 500 nM; in experiment [2] (setting [4]), 500 to 5000 nM. For the same compound, the “Enzymatic Emax” value in experiment [1] is recorded as “B (3≥B>2)”. Further, the maximal fold induction in experiment [2] (setting [4]) is more than 1.5.
`COc1ccc(CN2C(=O)c3ncsc3C2Cc2c(Cl)cnn2C)cc1` (stereo not drawn) [Compound 615, 6-((4-chloro-1-methyl-1H-pyrazol-5-yl)methyl)-5-(4-methoxybenzyl)-5,6-dihydro-4H-pyrrolo[3,4-d]thiazol-4-one]: in experiment [1] (setting [5]), the EC50 was not below 5000 nM. The “Enzymatic Emax” value in experiment [1] was “B (3≥B>2)”. For the same compound, in experiment [2] (setting [6]), the concentration giving a half-maximal response (EC50) lay in the range of 500 to 5000 nM and the maximal fold induction was 1.2 to 1.5.
For `COc1ccc(CN2C(=O)c3ccc(C4CC4)cc3C2Cc2c(Cl)cnn2C)cc1` (stereo not drawn) [Compound 624, 3-((4-chloro-1-methyl-1H-pyrazol-5-yl)methyl)-5-cyclopropyl-2-(4-methoxybenzyl)isoindolin-1-one] the same measures were 500 to 5000 nM, “B (3≥B>2)”, 500 to 5000 nM and 1.2 to 1.5.
`CN(C)CCOc1nn(C)c(CC2c3ccccc3C(=O)N2CC2CC3(CNC(=O)O3)C2)c1Cl` (stereo not drawn) [Compound 523, 2-((1-((4-chloro-3-(2-(dimethylamino)ethoxy)-1-methyl-1H-pyrazol-5-yl)methyl)-3-oxoisoindolin-2-yl)methyl)-5-oxa-7-azaspiro[3.4]octan-6-one]: the concentration giving a half-maximal response (EC50) in experiment [1] (setting [5]) is less than 500 nM. In experiment [1], the “Enzymatic Emax” value is “C (2≥C)”. Also, in experiment [2] (setting [6]), the concentration for a half-maximal effect (EC50) fell in the range of 500 to 5000 nM and the maximal fold induction was more than 1.5.

(Values after patent US20260078130A1, “NAMPT MODULATORS, PREPARATIONS, AND USES THEREOF” (SIRONAX LTD., priority 2022, published 2026).)
